{"source": "BindingDB's records for doi:10.1080/14756360802323720", "about": "(National University of Mexico City, 2009)", "note": "pIC50: −log10 of the molar value.", "data": [{"target": "T1, 3-oxo-5-alpha-steroid 4-dehydrogenase 2 (Homo sapiens, UniProt P31213)", "T1 sequence (P31213 whole entry)": "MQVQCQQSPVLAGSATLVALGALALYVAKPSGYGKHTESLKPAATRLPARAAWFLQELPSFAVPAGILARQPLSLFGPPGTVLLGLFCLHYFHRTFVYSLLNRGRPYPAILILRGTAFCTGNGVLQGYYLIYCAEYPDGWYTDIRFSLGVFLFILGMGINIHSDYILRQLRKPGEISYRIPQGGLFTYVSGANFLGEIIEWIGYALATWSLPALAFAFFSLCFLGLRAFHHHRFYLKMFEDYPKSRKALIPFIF", "assay": "5Alpha-Reductase Activity Assay", "settings": "pH 6.5; 37 °C", "description": "The IC50 values for the synthesized steroids with human prostate 5alpha-reductase enzyme.", "values": [{"smiles": "CC(=O)[C@@]1(OC(=O)c2ccc(Br)cc2)CCC2C3CC[C@@]45O[C@@H]4C(=O)CC[C@]5(C)C3CC[C@@]21C", "note": "(stereo not given in full) [Steroid, 10b]", "pIC50": 8.31}, {"smiles": "CC(=O)[C@@]1(OC(=O)c2ccc(Br)cc2)CCC2C3CCC4=CC(=O)CC[C@]4(C)C3CC[C@@]21C", "note": "(stereo not given in full) [Steroid, 9b]", "pIC50": 6.43}, {"smiles": "CC(C)(C)NC(=O)[C@H]1CCC2C3CCC4NC(=O)C=C[C@]4(C)C3CC[C@@]21C", "note": "(stereo not given in full) [Finasteride, 3]", "pIC50": 8.07}, {"smiles": "CC(=O)[C@@]1(OC(=O)c2ccccc2)CCC2C3CCC4=CC(=O)CC[C@]4(C)C3CC[C@@]21C", "note": "(stereo not given in full) [Steroid, 9a]", "pIC50": 6.44}, {"smiles": "CC(=O)[C@@]1(OC(=O)c2ccccc2)CCC2C3CC[C@@]45O[C@@H]4C(=O)CC[C@]5(C)C3CC[C@@]21C", "note": "(stereo not given in full) [Steroid, 10a]", "pIC50": 7.89}]}]}
